# Assay results reported in patent US11473088B2, “Method of treating cancer and method of sensitizing cancer cells to the action of chemotherapeutic agents via growth hormone receptor antagonists or knock down” (Ohio University, priority 2016, dated 2022).
# Entries after “also recorded” stand apart in the source; their conditions may differ. Like-named read-outs stand apart in the source and are kept apart here.
# B1: bGH: growth hormone (bGH) added at 50 or 500 ng/mL to B16F10 mouse melanoma cells (protein, UniProt P01246 27-217, looked up)
# Somatotropin: AFPAMSLSGLFANAVLRAQHLHQLAADTFKEFERTYIPEGQRYSIQNTQVAFCFSETIPAPTGKNEAQQKSDLELLRISLLLIQSWLGPLQFLSRVFTNSLVFGTSDRVYEKLKDLEEGILALMRELEDGTPRAGQILKQTYDKFDTNMRSDDALLKNYGLLSCFRKDLHKTETYLRVMKCRRFGEASCAF
# What was measured:
# SK-MEL-28 cells [1] = test: ABC transporter RNA (RT-qPCR) following drug treatment; format: cell-based, human; conditions: for Efflux Pumps (expression level change, p < 0.05): ABC-transporter pumps with significantly down-regulated RNA expressions: 24 hr. drug exposure, GHR-siRNA vs scr-siRNA transfected
# Protocol: (§1) Transfection was performed using siLentFect lipid reagent (Biorad #170-3360, Hercules, Calif.) following the manufacturer's protocol. […] Media was changed after 24 hours. RNA levels were analyzed 48 hours post transfection while protein levels were analyzed at 60 hours post-transfection. For drug treatment, drugs at the specified concentrations noted above were added to the cells 48 hours post-transfection and treated for 24 hours prior to quantitation of RNA expressions.
# (§2) RNA extraction, RT-qPCR, and protein extraction were performed as described in Example 1, above.
# MDA-MB-435 cells [2] = test: as above; format: cell-based, human; conditions: 24 hr. drug exposure, GHR-siRNA vs scr-siRNA transfected
# Protocol: as §1, §2
# MALME-3M cells [3] = test: as above; format: cell-based, human; conditions: for Efflux Pumps (expression level change, p < 0.05): ABC-transporter pumps with significantly down-regulated RNA expressions: 24 hr. drug exposure, GHR-siRNA vs scr-siRNA transfected
# Protocol: as §1, §2
# SK-MEL-5 cells [4] = test: as above; format: cell-based, human; conditions: 24 hr. drug exposure, GHR-siRNA vs scr-siRNA transfected
# Protocol: as §1, §2
# SK-MEL-5 cells [5] = test: as above; format: cell-based, human
# MDA-MB-435 cells [6] = test: as above; format: cell-based, human; conditions: 24 hr sub-EC50 drug, 50 ng/mL hGH
# four melanoma cell lines = test: Cell proliferation / EC50 determination; conditions: read-out: EC50 ranges for the four melanoma cell lines
# Protocol: (§4) A 1% (w/v) resazurin (Sigma-Aldrich #R7017) solution in 1× PBS was made and filter-sterilized. The final concentration of resazurin in the assay was 0.004%. Inside the proliferating cells, mildly fluorescent blue resazurin is reduced to a bright pink fluorescent product called resorufin (stable for 4 hours), which allows for a quantitative measure of the percentage of proliferating cells. In all cases, cells were incubated at 37° C. in 5% CO2 for 45-60 min. for adequate sensitivity of detection. Briefly, cells were seeded at 10,000 cells/cm^2 into 96-well plates and transfected as described above. The resazurin assay was performed 60 hours after transfection (unless specified otherwise) and resorufin absorbance was measured at 570 nm (reference wavelength=600 nm) using Spectramax250 (Molecular Devices, Sunnyvale, Calif.) and SoftmaxPro software.
# More specifically, SK-MEL-28 cells (FIG. 8A, panel 1), MALME-3M cells (FIG. 8A, panel 2), MDA-MB-435 cells (FIG. 8A, panel 3), and SK-MEL-5 cells (FIG. 8A, panel 4) were treated with increasing doses of hGH for 48 hr. and cell proliferation was estimated using a resazurin-based metabolic assay.
# For treatment of melanoma cells, the following five anti-tumor compounds were obtained from the sources mentioned: cisplatin (Calbiochem #232120, Darmstadt, Germany), doxorubicin (Sigma Aldrich #D-1515, St. Louis, Mo.), oridonin (Sigma-Aldrich #O-9639, St. Louis, Mo.), Paclitaxel (Sigma-Aldrich #C-7191), and vemurafenib/PLX4032 (ApexBio #A-3004, Houston, Tex.). […] In the subsequent experiments, the following drug concentrations were used unless specified otherwise: cisplatin (0.5 μM), doxorubicin (10 nM), oridonin (0.5 μM), paclitaxel (1 nM), vemurafenib (2 nM). Treatments were performed for 24 hours starting 48 hours post-transfection with siRNA.
# SK-MEL-28 cells [7] = test: EC50 of doxorubicin (cell viability); format: cell-based; conditions: Homo sapiens, Example 3, read-out: EC50 of doxorubicin against SK-MEL-28 cells
# Protocol: Cell viability, following treatments, was performed using Invitrogen's PrestoBlue cell viability assay system. As described previously, it is a resazurin based assay which is reduced to resorufin (absorption at 570 nm) by the reducing environment of metabolically viable cells. It was performed in a 96-well system as described previously.
# SK-MEL-28 cells [8] = test: RT-qPCR time course after doxorubicin addition; format: cell-based, human; conditions: 188 nM doxorubicin
# Protocol: (§3) Following treatments, cells were lysed, and RNA extraction was performed using IBI Tri-isolate kit (IBI), following manufacturer's protocol. RT-qPCR was performed as described previously.
# SK-MEL-28 cells [9] = test: Cell proliferation (resazurin) assay; format: cell-based; conditions: Homo sapiens, EC50 levels (cisplatin 10 μM, paclitaxel 5 nM), 24 hr, with and without siRNA mediated KD of GHR
# Protocol: as §4
# MALME-3M cells [10] = test: Cell proliferation (resazurin) assay; format: cell-based, human; conditions: Homo sapiens, EC50 levels (cisplatin 10 μM, paclitaxel 5 nM), 24 hr, with and without siRNA mediated KD of GHR
# Protocol: For hGH treatment, 16 hours after seeding (or 24 hours post-transfection), the cells were serum-starved for 2 hours in serum-free growth media, and hGH (phosphate buffered saline was used as control where applicable) was added at the noted concentrations (0-, 5-, 50-, and 150 ng/ml). Cells were subsequently incubated for 24 hours before evaluating RNA levels. Recombinant hGH was purchased from Antibodies Online (#ABIN2017921, Atlanta, Ga.).
# On the other hand, a pronounced drop in proliferation levels in all the cell lines was seen when GHR was knocked down. […] Cell proliferation was estimated using resazurin-based metabolic assay. […] Averages of at least four independent experiments performed in quadruplicate were taken [*, p<0.05, Students t-test]. The results may indicate that human melanoma cells utilize GH-GHR interaction to drive aggressive tumor phenotypes.
# To determine this, and referring now to FIGS. 35A-35D, changes in amounts of calcein retained inside cells following treatment with calcein-AM ester was analyzed by the fluorescence readout from intracellular calcein. Increased abundance of transporter pumps is reflected by decreased levels of intracellular calcein. […] Assays were performed 48 hr. post-transfection with either scr-siRNA or GHR-siRNA. […] SK-MEL-28 (FIG. 35C) and MALME-3M (FIG. 35D) cells were exposed to DMSO (vehicle), or 10 um cisplatin (Cis), or 5 nM paclitaxel (Pac) for 24 hr. Treatments were done 48 hr. post-transfection with either scr-siRNA (scr) or GHR-siRNA (GHR). Mean of three independent experiments performed in triplicate was taken. [*, p<0.05, Students t test, n=3]
# [11] = tested on: B16F10 mouse melanoma cells; test: ABC-transporter RNA in bGH treated cells (RT-qPCR); format: cell-based
# Protocol: as §3
# GH upregulates ABC-transporter expression in mouse melanoma B16F10 cells in vitro and in vivo: B16F10 mouse melanoma cells were treated with 50 or 500 ng/mL bGH for 6, 24, 48 or 72 hr and the changes in the RNA levels of specific multidrug exporter pumps were analyzed over time and GH dose. […] RNA extracted from B16F10 tumors grown in GHRKO or bGH mice were analyzed for the above ABC-transporters. In bGH mice, the tumor cells and resulting tumors were exposed in vivo to high endogenous GH and high IGF-1; while in GHRKO mice, the tumor cells and resulting tumors were exposed in vivo to high GH but low IGF1.
# [12] = 24 hr sub-EC50 drug, 50 ng/mL hGH
# [13] = 24-hour drug, presence vs absence of 50 ng/mL GH
molecule,measurement,setting,value
N.N.[Cl][Pt][Cl] [cisplatin],ABCB1 RNA level in response to drug,SK-MEL-28 cells [1]; [12],Significant upregulation
same,ABCB5 RNA level in response to drug,SK-MEL-28 cells [1]; [12],significantly upregulated
same,ABCG1 RNA level in response to drug,SK-MEL-28 cells [1]; [12],surged
same,"Efflux Pumps (expression level change, p < 0.05): ABC-transporter pumps with significantly down-regulated RNA expressions",SK-MEL-28 cells [1],"ABCB1, ABCB5, ABCB8, ABCG1"
same,"Efflux Pumps (expression level change, p < 0.05): ABC-transporter pumps with significantly down-regulated RNA expressions",MDA-MB-435 cells [2],"ABCB1, ABCB8, ABCC2, ABCG1,; also recorded: ABCG2"
same,ABCB8 RNA expression on drug exposure in presence of GH,MALME-3M cells [3]; [13],increase
same,"Efflux Pumps (expression level change, p < 0.05): ABC-transporter pumps with significantly down-regulated RNA expressions",MALME-3M cells [3],ABCB1
same,"Efflux Pumps (expression level change, p < 0.05): ABC-transporter pumps with significantly down-regulated RNA expressions",SK-MEL-5 cells [4],"ABCB1, ABCC1, ABCC2, ABCG2"
same,ABCB5 RNA expression on drug exposure in presence of GH,SK-MEL-5 cells [5]; [13],increase
same,ABCB8 RNA expression on drug exposure in presence of GH,SK-MEL-5 cells [5]; [13],increase
same,ABCG2 RNA expression on drug exposure in presence of GH,SK-MEL-5 cells [5]; [13],increase
same,ABCB1 RNA level in response to drug,MDA-MB-435 cells [6],Significant upregulation
same,ABCC2 RNA level in response to drug,MDA-MB-435 cells [6],significantly increased
same,ABCG1 RNA level in response to drug,MDA-MB-435 cells [6],surged
same,ABCG2 RNA level in response to drug,MDA-MB-435 cells [6],significantly upregulated
same,EC50,four melanoma cell lines,3000 to 15000 nM
COc1cccc2c1C(=O)c1c(O)c3c(c(O)c1C2=O)C[C@@](O)(C(=O)CO)C[C@@H]3O[C@H]1C[C@H](N)[C@H](O)[C@H](C)O1 [doxorubicin],EC50,SK-MEL-28 cells [7],188 nM
same,ABCB1 RNA expression on drug exposure in presence of GH,SK-MEL-28 cells [1]; [13],upregulation
same,ABCB8 RNA expression on drug exposure in presence of GH,SK-MEL-28 cells [1]; [13],upregulation
same,ABCB5 RNA level in response to drug,SK-MEL-28 cells [1]; [12],significantly upregulated
same,ABCG1 RNA level in response to drug,SK-MEL-28 cells [1]; [12],surged
same,ABCG2 RNA level in response to drug,SK-MEL-28 cells [1]; [12],significantly upregulated
same,"Efflux Pumps (expression level change, p < 0.05): ABC-transporter pumps with significantly down-regulated RNA expressions",SK-MEL-28 cells [1],"ABCB8, ABCC1, ABCG1, ABCG2"
same,"Efflux Pumps (expression level change, p < 0.05): ABC-transporter pumps with significantly down-regulated RNA expressions",MDA-MB-435 cells [2],"ABCB1, ABCB5, ABCC2, ABCG1"
same,ABCC2 RNA expression on drug exposure in presence of GH,MALME-3M cells [3]; [13],increase
same,ABCG1 RNA expression on drug exposure in presence of GH,MALME-3M cells [3]; [13],increase
same,ABCB8 RNA level in response to drug,MALME-3M cells [3]; [12],significant upregulation
same,ABCG1 RNA level in response to drug,MALME-3M cells [3]; [12],surged
same,"Efflux Pumps (expression level change, p < 0.05): ABC-transporter pumps with significantly down-regulated RNA expressions",MALME-3M cells [3],"ABCB8, ABCC1, ABCG1, ABCG2"
same,"Efflux Pumps (expression level change, p < 0.05): ABC-transporter pumps with significantly down-regulated RNA expressions",SK-MEL-5 cells [4],"ABCB1, ABCB8, ABCG2"
same,ABCB5 RNA expression on drug exposure in presence of GH,SK-MEL-5 cells [5]; [13],increase
same,ABCB8 RNA level in response to drug,SK-MEL-5 cells [5]; [12],significant upregulation
same,ABCG2 RNA level in response to drug,SK-MEL-5 cells [5]; [12],significantly upregulated
same,ABCB5 RNA level in response to drug,MDA-MB-435 cells [6],significantly upregulated
same,ABCB8 RNA level in response to drug,MDA-MB-435 cells [6],significant upregulation
same,EC50,four melanoma cell lines; Homo sapiens,25 to 100 nM
same,rise in ABCB1 RNA,SK-MEL-28 cells [8]; 12-hr,4 fold
same,rise in ABCG1 RNA,SK-MEL-28 cells [8]; 12-hr,8 fold
same,"transcript levels of CDH2, VIM and SNAI1",SK-MEL-28 cells [8]; 12-hr after addition,increased significantly
same,GER levels (RNA),SK-MEL-28 cells [8]; by 24-hr,concomitant rise
same,rise in autocrine GH transcript,SK-MEL-28 cells [8]; by 24-hr,> 2 fold
same,"RNA levels of ABCB8, ABCC1 and ABCC4 drug efflux pumps",SK-MEL-28 cells [8]; end of 24 hr,significantly higher levels
same,increase in CDH2 transcript,SK-MEL-28 cells [8]; end of 24 hr,> 3.5 fold
same,increase in SNAI1 transcript,SK-MEL-28 cells [8]; end of 24 hr,> 2 fold
same,reduction in the epithelial marker CDH1/E-cadherin,SK-MEL-28 cells [8]; end of 24 hr,> 8 fold
C=C1C(=O)[C@]23[C@H](O)[C@H]1CC[C@H]2[C@@]12CO[C@]3(O)[C@@H](O)[C@@H]1C(C)(C)CC[C@@H]2O [oridonin],EC50,four melanoma cell lines; Homo sapiens,2000 to 8000 nM
"CC(=O)O[C@H]1C(=O)[C@@]2(C)[C@H]([C@H](OC(=O)c3ccccc3)[C@]3(O)C[C@H](OC(=O)[C@H](O)[C@@H](NC(=O)c4ccccc4)c4ccccc4)C(C)=C1C3(C)C)[C@]1(OC(C)=O)CO[C@@H]1C[C@@H]2O [paclitaxel, Paclitaxel]",ABCG2 RNA expression on drug exposure in presence of GH,SK-MEL-28 cells [1]; [13],upregulation
same,ABCB5 RNA level in response to drug,SK-MEL-28 cells [1]; [12],significantly upregulated
same,ABCC1 RNA level in response to drug,SK-MEL-28 cells [1]; [12],particularly upregulated
same,ABCC2 RNA level in response to drug,SK-MEL-28 cells [1]; [12],significantly increased
same,ABCG1 RNA level in response to drug,SK-MEL-28 cells [1]; [12],surged
same,ABCG2 RNA level in response to drug,SK-MEL-28 cells [1]; [12],significantly upregulated
same,"Efflux Pumps (expression level change, p < 0.05): ABC-transporter pumps with significantly down-regulated RNA expressions",SK-MEL-28 cells [1],"ABCB5, ABCC1, ABCG1, ABCG2"
same,"Efflux Pumps (expression level change, p < 0.05): ABC-transporter pumps with significantly down-regulated RNA expressions",MDA-MB-435 cells [2],"ABCB5, ABCB8, ABCG1, ABCG2"
same,ABCB8 RNA level in response to drug,MALME-3M cells [3]; [12],significant upregulation
same,ABCC2 RNA level in response to drug,MALME-3M cells [3]; [12],significantly increased
same,"Efflux Pumps (expression level change, p < 0.05): ABC-transporter pumps with significantly down-regulated RNA expressions",MALME-3M cells [3],"ABCB8, ABCC1, ABCG1"
same,"Efflux Pumps (expression level change, p < 0.05): ABC-transporter pumps with significantly down-regulated RNA expressions",SK-MEL-5 cells [4],"ABCB8, ABCC1, ABCC2"
same,ABCB5 RNA expression on drug exposure in presence of GH,SK-MEL-5 cells [5]; [13],increase
same,ABCB8 RNA level in response to drug,SK-MEL-5 cells [5]; [12],significant upregulation
same,ABCC1 RNA level in response to drug,SK-MEL-5 cells [5]; [12],particularly upregulated
same,ABCC2 RNA level in response to drug,SK-MEL-5 cells [5]; [12],significantly increased
same,ABCG1 RNA level in response to drug,MDA-MB-435 cells [6],surged
same,EC50,four melanoma cell lines; Homo sapiens,2 to 8 nM
same,inhibition at 0.005 µM,SK-MEL-28 cells [9],> 90%
same,inhibition at 0.005 µM,MALME-3M cells [10],> 90%
CCCS(=O)(=O)Nc1ccc(F)c(C(=O)c2c[nH]c3ncc(-c4ccc(Cl)cc4)cc23)c1F [vemurafenib],EC50,four melanoma cell lines; Homo sapiens,2 to 20 nM
B1,"RNA expression of Abcb1, Abcg1 and Abcg2","[11]; 50 and 500 ng/mL bGH, 24, 48, and 72 hr",significantly higher RNA expression
same,"levels of Abcb8, Abcc1, Abcc2, and Abcc4 vs untreated controls",[11]; any dose or time-point in vitro,not significantly different
